Experimental data: article PMC7763113, “Design, synthesis, cytotoxic activity, and apoptosis inducing effects of 4- and N-substituted benzoyltaurinamide derivatives” (Turkish Journal of Chemistry, 2020)
Where “and” joins values, the source holds several entries; their conditions need not be identical. Equal entries are not always repeated. Entries after “also recorded” stand apart in the source; their conditions may differ. Where two headings read alike, the source gives them in different places.

Columns and labels:
[1] = test system: MDA-MB-231 triple-negative breast cancer cells; test: MTT cytotoxicity assay, MDA-MB-231; assay type: cell-based, human; settings: mean ± SD, read-out: Cytotoxic activity IC50, MDA-MB-231
Description: (§1) The human neuroblastoma cells (SH-SY5Y), triple-negative breast cancer cells (MDA-MB-231), and human pancreatic cancer cells (Panc1) used in this study were purchased from the American Type Culture Collection (ATCC). The cells were suspended in complete Dulbecco’s modified Eagle medium (DMEM) (Life Technologies, Gibco BRL, Grand Island, NY) supplemented with 10% fetal bovine serum (FBS, Hyclone), 1% penicillin and streptomycin (100 U/mL, Invitrogen) and plated in cell culture dishes. The cultures were maintained at 37 °C in a 5% CO2 95% humidified atmosphere. After reaching 85% confluence, the cells were transferred to 96-well plates or culture dishes. For MTT assays, the cells were seeded into 96-well cell culture plates at a density of 2 × 10^3 cells per well and allowed to adhere for 24 h. The cells were treated with fresh medium containing experimental compounds (100, 10, 1 µM) and incubated in a 5% CO2 incubator for 48 and 72 h. For protein analysis, the cells were seeded into 6-well cell culture plates at a density of 0.5 x 10^6 cells/well and allowed to adhere to the surface for 24 h. The stock solutions of the test compounds (5 mM) were prepared in sterile DMSO, and these stocks were then appropriately diluted with the complete culture medium. DMSO levels were maintained below 1% in the test concentrations.
(§2) Briefly, following exposures, MTT (at a final concentration of 0.5 mg/mL) was added to each well, and plates were incubated for 2 h at 37 °C in a 5% CO2 humidified incubator. The reaction mixture was removed, and DMSO was added to each well. The plates were shaken at room temperature, and the absorbance was measured at 570 nm and 630 nm using a microplate reader (VersaMax, Molecular Devices, USA). Percent survival was plotted relative to vehicle control cells, which were normalized to 100% survival.

[2] = test system: SH-SY5Y human neuroblastoma cells; test: MTT cytotoxicity assay, SH-SY5Y; assay type: cell-based; settings: mean ± SD, read-out: Cytotoxic activity IC50, SH-SY5Y
Description: as §1, §2

[3] = test system: PANC-1 human pancreatic cancer cells; test: MTT cytotoxicity assay, PANC-1; assay type: cell-based; settings: mean ± SD, read-out: Cytotoxic activity IC50, PANC-1
Description: as §1, §2

[4] = MTT cytotoxicity assay, MCF-10a (nontumorigenic); assay type: cell-based; settings: MCF-10a nontumorigenic mammary cells, MCF-10a nontumorigenic human mammary cell line, mean ± SD, read-out: Cytotoxic activity IC50, MCF-10a
Description: [The source words this procedure for another cell line and reports this cell line under the same test.] as §1, §2

[5] = test system: BAX, Bcl-2, Bcl-xL, caspase-3 and caspase-9 expression in MDA-MB-231 cell line; test: Western blot of apoptotic proteins, MDA-MB-231; assay type: cell-based, human; settings: for BAX protein levels: after only 24 h
Protocol: (§3) The cells (0.5 × 10^6 cell/well) were seeded into 6 well plates and incubated for 24 h, and then treated with selected experimental compounds for 24 h and 48 h. Following incubation, the cells were washed with ice-cold 1X PBS and lysed in 1X cell lysis buffer. These lysates were quantified using the BCA protein assay. Then, the cell lysates were analyzed by western blot.
(§4) On a 12% (w/v) tris-glycine denaturing gel, 20 μg protein was separated by electrophoresis, and then transferred to a PVDF membrane. After blocking, the membrane was incubated with primary antibodies, anti-Bax rabbit monoclonal antibody, anti-Bcl-2 rabbit monoclonal antibody, anti-Bcl-xL rabbit monoclonal antibody, anti-caspase-3 rabbit monoclonal antibody, and anti-caspase-9 rabbit monoclonal antibody (1:1000, Cell Signaling Technology) at 4 °C overnight. Following the incubation, the membrane was incubated with an anti-β-actin mouse monoclonal antibody (1:1000, Cell Signaling Technology) at room temperature for 1 h. After washing, the membrane was incubated with peroxidase-conjugated secondary antibodies for 1 h to visualize labeled proteins by enhanced chemiluminescence.

[6] = test system: BAX, Bcl-2, Bcl-xL, caspase-3 and caspase-9 expression in PANC-1 cell line; test: Western blot of apoptotic proteins, PANC-1; assay type: cell-based, human; settings: at IC50, 24 and 48 h, vs control
Protocol: as §3, §4

SH-SY5Y cells = test: Annexin V-FITC/PI flow cytometry, SH-SY5Y; assay type: cell-based, human; settings: 48 h, control 3.2%
Protocol: (§5) The cells were harvested after 48 h, washed with PBS, and analyzed using the Annexin V FITC/PI Apoptosis Detection kit (BioVision, Mountain View, CA, USA) with a benchtop flow cytometer (Accuri C6 flow cytometry, Becton Dickinson).

MDA-MB-231 cells = test: Annexin V-FITC/PI flow cytometry, MDA-MB-231; assay type: cell-based, human; settings: 48 h, control 1.2%
Protocol: as §5

PANC-1 cells = test: Annexin V-FITC/PI flow cytometry, PANC-1; assay type: cell-based, human; settings: at cytotoxic concentrations, 48 h
Protocol: as §5

SMILES | melting point [°C] | IC50 ([1]; Homo sapiens, MDA-MB-231, MTT) [µM] | IC50 ([2]; Homo sapiens, SH-SY5Y) [µM] | IC50 ([3]; Homo sapiens, PANC-1, MTT) [µM] | IC50 [4] [µM] | BAX protein levels ([5]; Western blot) | IC50 ([3]; MTT) [µM] | BAX expression [6] | Bcl-2 expression [6] | IC50 ([1]; MTT) | increase of caspase-9 activity ([5]; after only 48 h, relative to control) [fold] | IC50 [2] [µM] | apoptotic cell ratios (SH-SY5Y cells) | caspase-3 expression (in words) ([5]; Western blot) | decrease of Bcl-2 expression ([5]; after 24 and 48 h, compared to control) | percent of the positive apoptotic cells (MDA-MB-231 cells) | apoptotic cell ratios (Annexin V-FITC/PI result) (PANC-1 cells) | Bcl-xL expression [6] | caspase-3 expression [6] | caspase-9 expression [6]
O=C(NCCS(=O)(=O)Nc1ccccc1)c1ccccc1 [Compound 1, N-(2-(N-phenylsulfamoyl)ethyl)benzamide] | 123.7 to 124.7 | 140.4 ± 1.1 | 92.2 ± 1.5 | 86.7 ± 1.4 | 78.2 ± 1.6 |  |  |  |  |  |  |  |  |  |  |  |  |  |  | 
O=C(NCCS(=O)(=O)Nc1ccccc1)c1ccc(Cl)cc1 [Compound 2, 4-Chloro-N-(2-(N-phenylsulfamoyl)ethyl)benzamide] | 143.8 to 144.8 | 99.7 ± 1.1 | 29 ± 1.5 | 86.6 | 232.9 ± 2.1 | significantly increased | 86.6 ± 1.6 | significantly upregulated | significantly upregulated |  |  |  |  |  |  |  |  |  |  | 
COc1ccc(C(=O)NCCS(=O)(=O)Nc2ccccc2)cc1 [Compound 3, 4-Methoxy-N-(2-(N-phenylsulfamoyl)ethyl)benzamide] | 121.3 to 122.3 | 111 ± 1.2 | 57.4 ± 1.6 | 104 ± 1.6 | 98.9 ± 1.2 |  |  |  |  |  |  |  |  |  |  |  |  |  |  | 
Cc1ccc(C(=O)NCCS(=O)(=O)Nc2ccccc2)cc1 [Compound 4, 4-Methyl-N-(2-(N-phenylsulfamoyl)ethyl)benzamide] | 149.7 to 150.7 | 89.7 ± 1.5 | 75.9 ± 1.6 | 86.6 ± 1.4 | 132 ± 1.7 |  |  |  |  |  |  |  |  |  |  |  |  |  |  | 

The next lines start with results.

melting point [°C] | SMILES | IC50 ([1]; Homo sapiens, MDA-MB-231, MTT) [µM] | IC50 ([2]; Homo sapiens, SH-SY5Y) [µM] | IC50 ([3]; Homo sapiens, PANC-1, MTT) [µM] | IC50 [4] [µM] | BAX protein levels ([5]; Western blot) | IC50 ([3]; MTT) [µM] | BAX expression [6] | Bcl-2 expression [6] | IC50 ([1]; MTT) | increase of caspase-9 activity ([5]; after only 48 h, relative to control) [fold] | IC50 [2] [µM] | apoptotic cell ratios (SH-SY5Y cells) | caspase-3 expression (in words) ([5]; Western blot) | decrease of Bcl-2 expression ([5]; after 24 and 48 h, compared to control) | percent of the positive apoptotic cells (MDA-MB-231 cells) | apoptotic cell ratios (Annexin V-FITC/PI result) (PANC-1 cells) | Bcl-xL expression [6] | caspase-3 expression [6] | caspase-9 expression [6]
107 to 108 | O=C(NCCS(=O)(=O)N1CCOCC1)c1ccccc1 [Compound 5, N-(2-(morpholinosulfonyl)ethyl)benzamide] | 103 ± 1.7 | 118 ± 1.8 | 24.2 ± 2.1 | 89.6 ± 1.5 |  |  |  |  |  |  |  |  |  |  |  |  |  |  | 
162 to 163 | O=C(NCCS(=O)(=O)N1CCOCC1)c1ccc(Cl)cc1 [Compound 6, 4-Chloro-N-(2-(morpholinosulfonyl)ethyl)benzamide] | 79.1 | 80.6 | 8.8 ± 2.1 | 70.7 ± 1.8 | significantly increased |  |  |  | 136 ± 1.5 µM | 1.06 | 80.6 ± 1.9 |  |  |  |  |  |  |  | 
183.5 to 184.5 | COc1ccc(C(=O)NCCS(=O)(=O)N2CCOCC2)cc1 [Compound 7, 4-Methoxy-N-(2-(morpholinosulfonyl)ethyl)benzamide] | 136 | 134 ± 1.7 | 1.2 ± 1.8 | 118 ± 1.2 | significantly increased |  | effectively upregulated | did not show any effect | 79 µM and 77 µM |  |  | no positive results | lack of change | 2- to 3 fold | no changes | no significant changes; also recorded: negative | slightly decreased | effectively upregulated | effectively upregulated
174.2 to 175.2 | Cc1ccc(C(=O)NCCS(=O)(=O)N2CCOCC2)cc1 [Compound 8, 4-Methyl-N-(2-(morpholinosulfonyl)ethyl)benzamide] | 81.5 ± 1.2 | 79.3 ± 1.6 | 120.3 ± 1.2 | 81.4 ± 1.3 |  |  |  |  |  |  |  |  |  |  |  |  |  |  | 
